Data taken from the NIST ThermoML archive (doi:10.1016/j.jct.2006.11.003).
± gives the expanded uncertainty stated by the source.

Experiment: xn = mol fraction of the nth substance listed
Details: 101 kPa, Liquid

## Cc1ccccc1C [1,2-dimethylbenzene] + CN1CCCC1=O
293.15 K, x1 = 0.0478
  mass density: 1024.81 ± 0.45 kg/m3
293.15 K, x1 = 0.0865
  mass density: 1018.48 ± 0.42 kg/m3
293.15 K, x1 = 0.1584
  mass density: 1006.82 ± 0.37 kg/m3
293.15 K, x1 = 0.2266
  mass density: 995.89 ± 0.36 kg/m3
293.15 K, x1 = 0.2714
  mass density: 988.75 ± 0.39 kg/m3
293.15 K, x1 = 0.3393
  mass density: 978.06 ± 0.44 kg/m3
293.15 K, x1 = 0.387
  mass density: 970.61 ± 0.47 kg/m3
293.15 K, x1 = 0.4321
  mass density: 963.63 ± 0.49 kg/m3
293.15 K, x1 = 0.5011
  mass density: 953.04 ± 0.54 kg/m3
293.15 K, x1 = 0.5668
  mass density: 943.08 ± 0.58 kg/m3
293.15 K, x1 = 0.6297
  mass density: 933.64 ± 0.61 kg/m3
293.15 K, x1 = 0.7099
  mass density: 921.74 ± 0.66 kg/m3
293.15 K, x1 = 0.7859
  mass density: 910.6 ± 0.7 kg/m3
293.15 K, x1 = 0.8577
  mass density: 900.18 ± 0.74 kg/m3
293.15 K, x1 = 0.9388
  mass density: 888.55 ± 0.79 kg/m3
293.15 K, x1 = 1
  mass density: 879.84 ± 0.82 kg/m3
303.15 K, x1 = 0.0565
  mass density: 1014.2 ± 0.4 kg/m3
303.15 K, x1 = 0.1122
  mass density: 1005.19 ± 0.37 kg/m3
303.15 K, x1 = 0.1895
  mass density: 992.78 ± 0.37 kg/m3
303.15 K, x1 = 0.2467
  mass density: 983.7 ± 0.41 kg/m3
303.15 K, x1 = 0.3239
  mass density: 971.56 ± 0.46 kg/m3
303.15 K, x1 = 0.3967
  mass density: 960.27 ± 0.51 kg/m3
303.15 K, x1 = 0.4565
  mass density: 951.08 ± 0.54 kg/m3
303.15 K, x1 = 0.5127
  mass density: 942.54 ± 0.58 kg/m3
303.15 K, x1 = 0.5655
  mass density: 934.58 ± 0.61 kg/m3
303.15 K, x1 = 0.6251
  mass density: 925.68 ± 0.64 kg/m3
303.15 K, x1 = 0.7076
  mass density: 913.5 ± 0.69 kg/m3
303.15 K, x1 = 0.7626
  mass density: 905.46 ± 0.72 kg/m3
303.15 K, x1 = 0.8498
  mass density: 892.86 ± 0.77 kg/m3
303.15 K, x1 = 0.9049
  mass density: 884.97 ± 0.8 kg/m3
303.15 K, x1 = 0.9639
  mass density: 876.58 ± 0.84 kg/m3
303.15 K, x1 = 1
  mass density: 871.48 ± 0.86 kg/m3
313.15 K, x1 = 0.0485
  mass density: 1006.39 ± 0.37 kg/m3
313.15 K, x1 = 0.0922
  mass density: 999.35 ± 0.35 kg/m3
313.15 K, x1 = 0.1795
  mass density: 985.39 ± 0.4 kg/m3
313.15 K, x1 = 0.2368
  mass density: 976.31 ± 0.44 kg/m3
313.15 K, x1 = 0.3036
  mass density: 965.84 ± 0.48 kg/m3
313.15 K, x1 = 0.3679
  mass density: 955.86 ± 0.52 kg/m3
313.15 K, x1 = 0.4285
  mass density: 946.56 ± 0.56 kg/m3
313.15 K, x1 = 0.4894
  mass density: 937.31 ± 0.6 kg/m3
313.15 K, x1 = 0.5375
  mass density: 930.05 ± 0.63 kg/m3
313.15 K, x1 = 0.6034
  mass density: 920.22 ± 0.67 kg/m3
313.15 K, x1 = 0.673
  mass density: 909.94 ± 0.71 kg/m3
313.15 K, x1 = 0.7355
  mass density: 900.8 ± 0.74 kg/m3
313.15 K, x1 = 0.8196
  mass density: 888.65 ± 0.79 kg/m3
313.15 K, x1 = 0.8767
  mass density: 880.48 ± 0.82 kg/m3
313.15 K, x1 = 0.9289
  mass density: 873.06 ± 0.85 kg/m3
313.15 K, x1 = 1
  mass density: 863.03 ± 0.89 kg/m3
323.15 K, x1 = 0.0478
  mass density: 997.82 ± 0.35 kg/m3
323.15 K, x1 = 0.1014
  mass density: 989.16 ± 0.39 kg/m3
323.15 K, x1 = 0.1603
  mass density: 979.74 ± 0.43 kg/m3
323.15 K, x1 = 0.2364
  mass density: 967.69 ± 0.48 kg/m3
323.15 K, x1 = 0.3026
  mass density: 957.34 ± 0.52 kg/m3
323.15 K, x1 = 0.3575
  mass density: 948.83 ± 0.55 kg/m3
323.15 K, x1 = 0.4244
  mass density: 938.56 ± 0.59 kg/m3
323.15 K, x1 = 0.4915
  mass density: 928.37 ± 0.63 kg/m3
323.15 K, x1 = 0.5582
  mass density: 918.35 ± 0.67 kg/m3
323.15 K, x1 = 0.6217
  mass density: 908.9 ± 0.71 kg/m3
323.15 K, x1 = 0.6735
  mass density: 901.26 ± 0.74 kg/m3
323.15 K, x1 = 0.7536
  mass density: 889.56 ± 0.79 kg/m3
323.15 K, x1 = 0.8206
  mass density: 879.9 ± 0.82 kg/m3
323.15 K, x1 = 0.8728
  mass density: 872.43 ± 0.85 kg/m3
323.15 K, x1 = 0.9511
  mass density: 861.36 ± 0.9 kg/m3
323.15 K, x1 = 1
  mass density: 854.51 ± 0.93 kg/m3
333.15 K, x1 = 0.0579
  mass density: 986.94 ± 0.4 kg/m3
333.15 K, x1 = 0.1023
  mass density: 979.83 ± 0.43 kg/m3
333.15 K, x1 = 0.1814
  mass density: 967.25 ± 0.48 kg/m3
333.15 K, x1 = 0.2556
  mass density: 955.59 ± 0.52 kg/m3
333.15 K, x1 = 0.3135
  mass density: 946.59 ± 0.56 kg/m3
333.15 K, x1 = 0.3815
  mass density: 936.11 ± 0.6 kg/m3
333.15 K, x1 = 0.4478
  mass density: 926.02 ± 0.64 kg/m3
333.15 K, x1 = 0.5014
  mass density: 917.94 ± 0.68 kg/m3
333.15 K, x1 = 0.5654
  mass density: 908.37 ± 0.71 kg/m3
333.15 K, x1 = 0.6122
  mass density: 901.45 ± 0.74 kg/m3
333.15 K, x1 = 0.6632
  mass density: 893.96 ± 0.77 kg/m3
333.15 K, x1 = 0.8105
  mass density: 872.67 ± 0.85 kg/m3
333.15 K, x1 = 0.8744
  mass density: 863.57 ± 0.89 kg/m3
333.15 K, x1 = 0.9214
  mass density: 856.93 ± 0.92 kg/m3
333.15 K, x1 = 0.9632
  mass density: 851.06 ± 0.94 kg/m3
333.15 K, x1 = 1
  mass density: 845.91 ± 0.96 kg/m3
343.15 K, x1 = 0.0462
  mass density: 979.94 ± 0.43 kg/m3
343.15 K, x1 = 0.1045
  mass density: 970.59 ± 0.46 kg/m3
343.15 K, x1 = 0.1614
  mass density: 961.55 ± 0.5 kg/m3
343.15 K, x1 = 0.2153
  mass density: 953.05 ± 0.53 kg/m3
343.15 K, x1 = 0.2864
  mass density: 941.94 ± 0.58 kg/m3
343.15 K, x1 = 0.3576
  mass density: 930.94 ± 0.62 kg/m3
343.15 K, x1 = 0.4102
  mass density: 922.9 ± 0.66 kg/m3
343.15 K, x1 = 0.4828
  mass density: 911.91 ± 0.7 kg/m3
343.15 K, x1 = 0.5477
  mass density: 902.2 ± 0.74 kg/m3
343.15 K, x1 = 0.6065
  mass density: 893.5 ± 0.77 kg/m3
343.15 K, x1 = 0.6735
  mass density: 883.68 ± 0.81 kg/m3
343.15 K, x1 = 0.7533
  mass density: 872.13 ± 0.86 kg/m3
343.15 K, x1 = 0.8095
  mass density: 864.07 ± 0.89 kg/m3
343.15 K, x1 = 0.8745
  mass density: 854.83 ± 0.93 kg/m3
343.15 K, x1 = 0.9407
  mass density: 845.51 ± 0.96 kg/m3
343.15 K, x1 = 1
  mass density: 837.23 ± 1 kg/m3
353.15 K, x1 = 0.0475
  mass density: 970.95 ± 0.46 kg/m3
353.15 K, x1 = 0.1037
  mass density: 961.94 ± 0.5 kg/m3
353.15 K, x1 = 0.1582
  mass density: 953.26 ± 0.53 kg/m3
353.15 K, x1 = 0.2167
  mass density: 944.03 ± 0.57 kg/m3
353.15 K, x1 = 0.2633
  mass density: 936.72 ± 0.6 kg/m3
353.15 K, x1 = 0.34
  mass density: 924.83 ± 0.65 kg/m3
353.15 K, x1 = 0.4067
  mass density: 914.62 ± 0.69 kg/m3
353.15 K, x1 = 0.4529
  mass density: 907.6 ± 0.72 kg/m3
353.15 K, x1 = 0.5184
  mass density: 897.76 ± 0.76 kg/m3
353.15 K, x1 = 0.5689
  mass density: 890.24 ± 0.79 kg/m3
353.15 K, x1 = 0.6322
  mass density: 880.91 ± 0.82 kg/m3
353.15 K, x1 = 0.7097
  mass density: 869.62 ± 0.87 kg/m3
353.15 K, x1 = 0.7859
  mass density: 858.64 ± 0.91 kg/m3
353.15 K, x1 = 0.8511
  mass density: 849.36 ± 0.95 kg/m3
353.15 K, x1 = 0.9354
  mass density: 837.48 ± 1 kg/m3
353.15 K, x1 = 1
  mass density: 828.47 ± 1 kg/m3
